How the values were obtained:
Type in all cases: in vivo
[1] = test system: barnyardgrass (Echinochloa crus-galli); assay: Test C greenhouse herbicide test, pre- and postemergence
In short: (§1)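 Visual 0–100 injury score (100 = complete control) taken against untreated controls after 13–15 d in greenhouse. Test chemicals, formulated in solvent plus surfactant, applied preemergence to seeds in loam–sand soil or postemergence to 1- to 4-leaf plants (2–18 cm).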

[2] = test system: blackgrass (Alopecurus myosuroides); assay: as above
In short: as §1

corn (Zea mays) = assay: as above
In short: as §1

[3] = test system: crabgrass, large (large crabgrass, Digitaria sanguinalis); assay: as above
In short: as §1

[4] = test system: foxtail, giant (giant foxtail, Setaria faberii); assay: as above
In short: as §1

[5] = test system: galium (catchweed bedstraw, Galium aparine); assay: as above
In short: as §1

[6] = test system: johnsongrass (Sorghum halepense); assay: as above
In short: as §1

[7] = test system: morningglory (Ipomoea coccinea); assay: as above
In short: as §1

[8] = test system: oilseed rape (Brassica napus); assay: as above
In short: as §1

[9] = test system: pigweed (Amaranthus retroflexus); assay: as above
In short: as §1

[10] = test system: ragweed (common ragweed, Ambrosia elatior); assay: as above
In short: as §1

soybean (Glycine max) = assay: as above
In short: as §1

[11] = test system: velvetleaf (Abutilon theophrasti); assay: as above
In short: as §1

[12] = test system: waterhemp (common waterhemp, Amaranthus rudis); assay: as above
In short: as §1

[13] = test system: wheat (winter wheat, Triticum aestivum); assay: as above
In short: as §1

kochia (Kochia scoparia) = assay: Test C greenhouse herbicide test, postemergence
In short: (§2)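 Test chemicals were applied postemergence to greenhouse plants at the 1- to 4-leaf stage (2–18 cm tall) growing in peat/vermiculite medium. After 13–15 d, injury was rated visually against untreated controls on a 0–100 scale (0 = no effect, 100 = complete control).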

[14] = test system: oat, wild (wild oat, Avena fatua); assay: Test C greenhouse herbicide test, postemergence
In short: as §2

[15] = Postemergence, 31 g ai/ha, scale 0 to 100 (0 no effect, 100 complete control)
[16] = Postemergence, 62 g ai/ha, 0 to 100 scale (0 no effect, 100 complete control)
[17] = Postemergence, 250 g ai/ha, scale 0 to 100, 0 is no effect, 100 is complete control
[18] = postemergence, 125 g ai/ha, scale 0 to 100, 0 no effect, 100 complete control

## Cc1ccc2ccccc2c1-c1c(OC(=O)N2CCOCC2)c(Br)nn(C)c1=O [Compound 176]
[1]; [15]
  Plant response rating, Barnyardgrass: 5
[1]; [16]
  Barnyardgrass plant response rating: 5
[1]; [17]
  Plant response rating, Barnyardgrass: 20
[1]; [18]
  Barnyardgrass plant response rating: 10
[2]; [15]
  Plant response rating, Blackgrass: 0
[2]; [16]
  Blackgrass plant response rating: 0
[2]; [17]
  Plant response rating, Blackgrass: 0
[2]; [18]
  Blackgrass plant response rating: 0
Corn (Zea mays); [15]
  Plant response rating, Corn: 0
Corn (Zea mays); [16]
  Corn plant response rating: 10
Corn (Zea mays); [17]
  Plant response rating, Corn: 5
Corn (Zea mays); [18]
  Corn plant response rating: 0
[3]; [15]
  Plant response rating, Crabgrass, Large: 10
[3]; [16]
  Crabgrass, Large plant response rating: 5
[3]; [17]
  Plant response rating, Crabgrass, Large: 30
[3]; [18]
  Crabgrass, Large plant response rating: 20
[4]; [15]
  Plant response rating, Foxtail, Giant: 5
[4]; [16]
  Foxtail, Giant plant response rating: 15
[4]; [17]
  Plant response rating, Foxtail, Giant: 40
[4]; [18]
  Foxtail, Giant plant response rating: 35
[5]; [15]
  Plant response rating, Galium: 0
[5]; [16]
  Galium plant response rating: 5
[5]; [17]
  Plant response rating, Galium: 60
[5]; [18]
  Galium plant response rating: 60
[6]; [15]
  Plant response rating, Johnsongrass: 5
[6]; [16]
  Johnsongrass plant response rating: 5
[6]; [17]
  Plant response rating, Johnsongrass: 10
[6]; [18]
  Johnsongrass plant response rating: 5
[7]; [15]
  Plant response rating, Morningglory: 85
[7]; [16]
  Morningglory plant response rating: 85
[7]; [17]
  Plant response rating, Morningglory: 100
[7]; [18]
  Morningglory plant response rating: 98
[8]; [15]
  Plant response rating, Oilseed Rape: 95
[8]; [16]
  Oilseed Rape plant response rating: 95
[8]; [17]
  Plant response rating, Oilseed Rape: 95
[8]; [18]
  Oilseed Rape plant response rating: 95
[9]; [15]
  Plant response rating, Pigweed: 20
[9]; [16]
  Pigweed plant response rating: 30
[9]; [17]
  Plant response rating, Pigweed: 75
[9]; [18]
  Pigweed plant response rating: 50
[10]; [15]
  Plant response rating, Ragweed: 0
[10]; [16]
  Ragweed plant response rating: 0
[10]; [17]
  Plant response rating, Ragweed: 0
[10]; [18]
  Ragweed plant response rating: 0
Soybean (Glycine max); [15]
  Plant response rating, Soybean: 5
Soybean (Glycine max); [16]
  Soybean plant response rating: 10
Soybean (Glycine max); [17]
  Plant response rating, Soybean: 10
Soybean (Glycine max); [18]
  Soybean plant response rating: 15
[11]; [15]
  Plant response rating, Velvetleaf: 0
[11]; [16]
  Velvetleaf plant response rating: 25
[11]; [17]
  Plant response rating, Velvetleaf: 80
[11]; [18]
  Velvetleaf plant response rating: 75
[12]; [15]
  Plant response rating, Waterhemp: 20
[12]; [16]
  Waterhemp plant response rating: 40
[12]; [17]
  Plant response rating, Waterhemp: 55
[12]; [18]
  Waterhemp plant response rating: 60
[13]; [15]
  Plant response rating, Wheat: 0
[13]; [16]
  Wheat plant response rating: 5
[13]; [17]
  Plant response rating, Wheat: 40
[13]; [18]
  Wheat plant response rating: 10
Kochia (Kochia scoparia); [15]
  Plant response rating, Kochia: 90
Kochia (Kochia scoparia); [16]
  Kochia plant response rating: 90
Kochia (Kochia scoparia); [17]
  Plant response rating, Kochia: 100
Kochia (Kochia scoparia); [18]
  Kochia plant response rating: 95
[14]; [15]
  Plant response rating, Oat, Wild: 0
[14]; [16]
  Oat, Wild plant response rating: 5
[14]; [17]
  Plant response rating, Oat, Wild: 35
[14]; [18]
  Oat, Wild plant response rating: 10
